In ChEMBL document CHEMBL1201862, “PubChem BioAssay data set” (2004):
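Test compounds were applied to cells in 96-well plates for 48 hours at 5 doses. GI50 is the concentration that inhibits growth by half.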 Active and inactive are the calls of the source. Rule as the data show it: active = GI50 up to about 1.1 µM and inactive = higher.

What was measured:
Assay in all cases: NCI-60 cell line screen, 48 h
CCRF-CEM = system: CCRF-CEM
IGROV-1 = system: IGROV-1
SF-268 = system: SF-268
OVCAR-8 = system: OVCAR-8
SK-OV-3 = system: SK-OV-3
SF-539 = system: SF-539
U-251 = system: U-251
786-0 = system: 786-0
SR = system: SR
A549 = system: A549
SK-MEL-2 = system: SK-MEL-2
TK-10 = system: TK-10
NCI-H460 = system: NCI-H460
SNB-19 = system: SNB-19
PC-3 = system: PC-3
MDA-MB-231 = system: MDA-MB-231
LOX IMVI = system: LOX IMVI
UACC-257 = system: UACC-257
DU-145 = system: DU-145
OVCAR-3 = system: OVCAR-3
HL-60 = system: HL-60
SK-MEL-28 = system: SK-MEL-28
M14 = system: M14
OVCAR-5 = system: OVCAR-5
SNB-75 = system: SNB-75
UACC-62 = system: UACC-62
SF-295 = system: SF-295
SK-MEL-5 = system: SK-MEL-5
HOP-92 = system: HOP-92
Hs-578T = system: Hs-578T
HCC 2998 = system: HCC 2998
A498 = system: A498
MCF7 = system: MCF7
SW-620 = system: SW-620
KM12 = system: KM12
EKVX = system: EKVX
NCI-H226 = system: NCI-H226
HOP-62 = system: HOP-62
Malme-3M = system: Malme-3M
MDA-MB-435 = system: MDA-MB-435
UO-31 = system: UO-31
CAKI-1 = system: CAKI-1
T47D = system: T47D
COLO 205 = system: COLO 205
NCI/ADR-RES = system: NCI/ADR-RES
OVCAR-4 = system: OVCAR-4
K562 = system: K562
HT-29 = system: HT-29
HCT-15 = system: HCT-15
RPMI-8226 = system: RPMI-8226
MDA-N = system: MDA-N
NCI-H23 = system: NCI-H23
ACHN = system: ACHN
SN12C = system: SN12C
BT-549 = system: BT-549
HCT-116 = system: HCT-116
MOLT-4 = system: MOLT-4

## C/C(=N\NC(=S)NC1CCCC1)c1ccccn1
CCRF-CEM
  GI50: < 10 nM (active)
IGROV-1
  GI50: < 10 nM (active)
SF-268
  GI50: 569 nM (active)
OVCAR-8
  GI50: < 21.8 nM (active)
SK-OV-3
  GI50: 100 nM (active)
SF-539
  GI50: 1020 nM (active)
U-251
  GI50: 75.3 nM (active)
786-0
  GI50: 46.7 nM (active)
SR
  GI50: < 10 nM (active)
A549
  GI50: 99.1 nM (active)
SK-MEL-2
  GI50: 1350 nM (inactive)
TK-10
  GI50: 202 nM (active)
NCI-H460
  GI50: 53.3 nM (active)
SNB-19
  GI50: 1050 nM (active)
PC-3
  GI50: < 10 nM (active)
MDA-MB-231
  GI50: 1080 nM (active)
LOX IMVI
  GI50: < 10 nM (active)
UACC-257
  GI50: < 10 nM (active)
DU-145
  GI50: 900 nM (active)
OVCAR-3
  GI50: < 10 nM (active)
HL-60
  GI50: < 10 nM (active)
SK-MEL-28
  GI50: 3280 nM (inactive)
M14
  GI50: < 10 nM (active)
OVCAR-5
  GI50: 35.6 nM (active)
SNB-75
  GI50: 2250 nM (inactive)
UACC-62
  GI50: 200 nM (active)
SF-295
  GI50: 223 nM (active)
SK-MEL-5
  GI50: 205 nM (active)
HOP-92
  GI50: 71.8 nM (active)
Hs-578T
  GI50: 36600 nM (inactive)
HCC 2998
  GI50: 515 nM (active)
A498
  GI50: 650 nM (active)
MCF7
  GI50: < 10 nM (active)
SW-620
  GI50: < 10 nM (active)
KM12
  GI50: 70.8 nM (active)
EKVX
  GI50: < 10 nM (active)
NCI-H226
  GI50: 41.6 nM (active)
HOP-62
  GI50: < 17 nM (active)
Malme-3M
  GI50: 434 nM (active)
MDA-MB-435
  GI50: 578 nM (active)
UO-31
  GI50: < 26 nM (active)
CAKI-1
  GI50: < 10 nM (active)
T47D
  GI50: < 10 nM (active)
COLO 205
  GI50: < 10 nM (active)
NCI/ADR-RES
  GI50: < 10 nM (active)
OVCAR-4
  GI50: 135 nM (active)
K562
  GI50: < 10 nM (active)
HT-29
  GI50: < 10 nM (active)
HCT-15
  GI50: < 10 nM
RPMI-8226
  GI50: < 10 nM (active)
MDA-N
  GI50: 165 nM (active)
NCI-H23
  GI50: < 17.7 nM (active)
ACHN
  GI50: < 10 nM (active)
SN12C
  GI50: 299 nM (active)
BT-549
  GI50: 472 nM (active)
HCT-116
  GI50: < 10 nM (active)
MOLT-4
  GI50: < 10 nM (active)
